For 34 cell lines, relative viability results are on record in the supplement of paper PMC10307832.

Compound in the assay: CN(C/C=C/C1=CC=C(C=C1)Cl)CC2=CC=CC=C2N(CCO)S(=O)(=O)C3=CC=C(C=C3)OC [KN-93] + Cc1nc(NC(=O)N2CCC[C@H]2C(N)=O)sc1-c1ccnc(C(C)(C)C(F)(F)F)c1 [Alpelisib] (partner 2 µM)
Description: relative viability (nuclei count vs DMSO), 5 days (fraction); higher = more cells survive. The method in brief: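 Relative viability divides the nuclei count in treated wells by that in vehicle wells. Lung cancer cell lines were seeded in 1536-well plates, dosed by pin tool the next day, and fixed and stained after 5 days in one step with final 0.05% Triton X-100, 1% formaldehyde and 1 ug/ml Hoechst. Dosing was a single drug or a fixed anchor-drug dose plus five library-drug doses (not always all listed) in √10 steps, and values are medians of duplicate plates imaged at 4×.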

As for HCC-15, the relative viability (first compound 0.08 µM) stood at 0.816, the relative viability (first compound 0.253 µM) was 1.09, the relative viability (first compound 2.53 µM) was determined as 0.884 and the relative viability (first compound 8 µM) was determined as 0.744.

As for EPLC-272H, the relative viability by setting is: (first compound 0.08 µM) 0.947; (first compound 0.253 µM) 1.02; (first compound 2.53 µM) 1.04; (first compound 8 µM) 0.792.

Regarding BEN, the relative viability reads like this: (first compound 0.253 µM) 1.37; (first compound 2.53 µM) 1.06; (first compound 8 µM) 0.806.

Turning to NCI-H727, the relative viability worked out at 0.466 (first compound 0.08 µM), 0.525 (first compound 0.253 µM), 0.563 (first compound 2.53 µM) and 0.378 (first compound 8 µM).

With NCI-H1975, the relative viability runs as follows: (first compound 0.08 µM) 0.607; (first compound 0.253 µM) 0.717; (first compound 2.53 µM) 0.556; (first compound 8 µM) 0.284.

With NCI-H23, the relative viability is, setting by setting: (first compound 0.08 µM) 0.592; (first compound 0.253 µM) 0.702; (first compound 2.53 µM) 1.01; (first compound 8 µM) 0.596.

As to NCI-H2126, the relative viability is 0.81 (first compound 0.08 µM), 0.725 (first compound 0.253 µM), 0.769 (first compound 2.53 µM) and 0.727 (first compound 8 µM).

On to COR-L 105, for which the relative viability by setting is: (first compound 0.08 µM) 0.866; (first compound 0.253 µM) 0.991; (first compound 2.53 µM) 0.918; (first compound 8 µM) 0.74.

As for NCI-H2228, the relative viability is, setting by setting: (first compound 0.08 µM) 0.704; (first compound 0.253 µM) 0.553; (first compound 2.53 µM) 0.722; (first compound 8 µM) 0.236.

With PC-3 [JPC-3], the relative viability was 0.999 (first compound 0.08 µM), 1.04 (first compound 0.253 µM), 1.01 (first compound 2.53 µM) and 0.94 (first compound 8 µM).

With LU99A, the relative viability is, setting by setting: (first compound 0.08 µM) 0.525; (first compound 0.253 µM) 0.636; (first compound 2.53 µM) 0.557; (first compound 8 µM) 0.39.

For the cell line NCI-H2347, the relative viability was 1 (first compound 0.08 µM), 1.09 (first compound 0.253 µM), 1.07 (first compound 2.53 µM) and 0.764 (first compound 8 µM).

Consider 201T, for which the relative viability by setting is: (first compound 0.08 µM) 1.17; (first compound 0.253 µM) 0.966; (first compound 2.53 µM) 1.01; (first compound 8 µM) 0.935.

For NCI-H2009, the relative viability (first compound 0.08 µM) was determined as 1.2, the relative viability (first compound 0.253 µM) is 1.3, the relative viability (first compound 2.53 µM) stood at 1.29 and the relative viability (first compound 8 µM) was determined as 0.887.

Turning to CAL-12T, the relative viability came out at 0.859 (first compound 0.08 µM), 1.44 (first compound 0.253 µM), 1.57 (first compound 2.53 µM) and 1.06 (first compound 8 µM).

On to NCI-H322M, for which the relative viability stood at 0.873 (first compound 0.08 µM), 1.06 (first compound 0.253 µM), 0.836 (first compound 2.53 µM) and 0.686 (first compound 8 µM).

Consider HARA, for which the relative viability reads like this: (first compound 0.08 µM) 0.811; (first compound 0.253 µM) 0.775; (first compound 2.53 µM) 0.705; (first compound 8 µM) 0.471.

For NCI-H650, the relative viability runs as follows: (first compound 0.08 µM) 1.04; (first compound 0.253 µM) 1.34; (first compound 2.53 µM) 1.04; (first compound 8 µM) 0.65.

Consider NCI-H2405, for which the relative viability was found to be 0.831 (first compound 0.08 µM), 0.732 (first compound 0.253 µM), 0.766 (first compound 2.53 µM) and 0.526 (first compound 8 µM).

For the cell line NCI-H2023, the relative viability is 0.562 (first compound 0.08 µM), 0.46 (first compound 0.253 µM), 0.689 (first compound 2.53 µM) and 0.517 (first compound 8 µM).

As to PC-14, the relative viability is 0.753 (first compound 0.08 µM), 1.01 (first compound 0.253 µM), 1.14 (first compound 2.53 µM) and 0.839 (first compound 8 µM).

Consider A-427, for which the relative viability is, setting by setting: (first compound 0.08 µM) 1.07; (first compound 0.253 µM) 1.18; (first compound 2.53 µM) 1.08; (first compound 8 µM) 0.975.

NCI-H1355: the relative viability came out at 0.731 (first compound 0.08 µM), 0.719 (first compound 0.253 µM), 0.946 (first compound 2.53 µM) and 0.697 (first compound 8 µM).

On to SK-LU-1, for which the relative viability (first compound 0.08 µM) came to 1.19, the relative viability (first compound 0.253 µM) was 1.47, the relative viability (first compound 2.53 µM) is 0.926 and the relative viability (first compound 8 µM) was 0.471.

For the cell line NCI-H1792, the relative viability (first compound 0.253 µM) was 0.759, the relative viability (first compound 2.53 µM) amounted to 0.735 and the relative viability (first compound 8 µM) is 0.458.

Take NCI-H1993: the relative viability reads like this: (first compound 0.08 µM) 0.648; (first compound 0.253 µM) 0.574; (first compound 2.53 µM) 0.71; (first compound 8 µM) 0.59.

HCC-827: the relative viability by setting is: (first compound 0.08 µM) 0.959; (first compound 0.253 µM) 0.985; (first compound 2.53 µM) 0.962; (first compound 8 µM) 0.755.

H3255: the relative viability is, setting by setting: (first compound 0.08 µM) 0.664; (first compound 0.253 µM) 0.788; (first compound 2.53 µM) 0.631; (first compound 8 µM) 0.532.

Turning to LCLC-103H, the relative viability (first compound 0.08 µM) was determined as 1, the relative viability (first compound 0.253 µM) worked out at 0.994, the relative viability (first compound 2.53 µM) was determined as 0.92 and the relative viability (first compound 8 µM) worked out at 0.861.

For SK-MES-1, the relative viability reads like this: (first compound 0.08 µM) 0.737; (first compound 0.253 µM) 0.977; (first compound 2.53 µM) 0.864; (first compound 8 µM) 0.862.

On to EKVX, for which the relative viability (first compound 0.08 µM) stood at 0.728, the relative viability (first compound 0.253 µM) was found to be 0.845, the relative viability (first compound 2.53 µM) came out at 1.02 and the relative viability (first compound 8 µM) amounted to 0.692.

Regarding NCI-H838, the relative viability (first compound 0.08 µM) came out at 0.989, the relative viability (first compound 0.253 µM) was found to be 0.911, the relative viability (first compound 2.53 µM) is 1.09 and the relative viability (first compound 8 µM) was determined as 0.887.

In the case of NCI-H647, the relative viability was found to be 1.39 (first compound 0.08 µM), 1.52 (first compound 0.253 µM), 1.32 (first compound 2.53 µM) and 0.717 (first compound 8 µM).

For the cell line NCI-H1651, the relative viability (first compound 0.08 µM) was found to be 1.05, the relative viability (first compound 0.253 µM) is 1.23, the relative viability (first compound 2.53 µM) came to 1.3 and the relative viability (first compound 8 µM) turned out to be 0.624.
